How the values were obtained:
Format in all cases: in vivo
Morningglory [1] = assay: Pre-emergence herbicide test; settings: Ipomoea, 11.21 kg/ha, read-out: % plant inhibition (Mogl)
Method: (§1) The tests for pre-emergence herbicide activity are conducted as follows:
(§2) Topsoil is placed in an aluminum pan and compacted to a depth of 0.95 to 1.27 cm from the top of the pan. On the top of the soil is placed a predetermined number of seeds of each of several monocotyledonous and dicotyledonous annual plant species and/or vegetative propagules of various perennial plant species. A known amount of the active ingredient dissolved or suspended in an organic solvent, e.g., acetone, or water as carrier is then applied directly to the seed bed, which is then covered with a layer of untreated topsoil to level fill the pan. After treatment, the pans are moved to a greenhouse bench where they are watered from below as needed to give adequate moisture for germination and growth.
(§3) Approximately 10-14 days (usually 11 days) after seeding and treating, the pans are observed and the results (% inhibition) are recorded.
(§4) Tables 7 and 7A below summarize the results of the pre-emergence herbicidal activity tests of compounds of this invention in weeds. The herbicidal rating shown in these tables is the percent inhibition of each plant species. The plant species usually regarded as weeds which are utilized in one set of tests, the data for which are shown in the tables, are identified by letter headings above the columns in accordance with the following legend: […]

Velvetleaf [2] = assay: Pre-emergence herbicide test; settings: Abutilon theophrasti, 11.21 kg/ha, read-out: % plant inhibition (Vele)
Method: as §1, §2, §3, §4

Wild buckwheat [3] = assay: Pre-emergence herbicide test; settings: Fallopia convolvulus, 11.21 kg/ha, read-out: % plant inhibition (Wibw)
Method: as §1, §2, §3, §4

Cocklebur [4] = assay: Pre-emergence herbicide test; settings: Xanthium strumarium, 11.21 kg/ha, read-out: % plant inhibition (Cobu)
Method: as §1, §2, §3, §4

Seedling johnsongrass [5] = assay: Pre-emergence herbicide test; settings: Sorghum halepense, 11.21 kg/ha, read-out: % plant inhibition (Sejg)
Method: as §1, §2, §3, §4

Annual bluegrass [6] = assay: Pre-emergence herbicide test; settings: 11.21 kg/ha, read-out: % plant inhibition (Anbg)
Method: as §1, §2, §3, §4

Downy Brome [7] = assay: Pre-emergence herbicide test; settings: Bromus tectorum, 11.21 kg/ha, read-out: % plant inhibition (Dobr)
Method: as §1, §2, §3, §4

Barnyardgrass [8] = assay: Pre-emergence herbicide test; settings: Echinochloa crus-galli, 11.21 kg/ha, read-out: % plant inhibition (Bygr)
Method: as §1, §2, §3, §4

Indian Mustard [9] = assay: Pre-emergence herbicide test; settings: Brassica juncea, 11.21 kg/ha, read-out: % plant inhibition (Inmu)
Method: as §1, §2, §3, §4

Yellow nutsedge [10] = assay: Pre-emergence herbicide test; settings: Cyperus, 11.21 kg/ha, read-out: % plant inhibition (Yens)
Method: as §1, §2, §3, §4

Morningglory [11] = assay: Post-emergence herbicide test; settings: Ipomoea, 11.21 kg/ha, read-out: % plant inhibition (Mogl)
Description: (§5) Topsoil is placed in aluminum pans having holes in the bottom and compacted to a depth of 0.95 to 1.27 cm from the top of the pan. A predetermined number of seeds of each of several dicotyledonous and monocotyledonous annual plant species and/or vegetative propagules for the perennial plant species are placed on the soil and pressed into the soil surface. The seeds and/or vegetative propagules are covered with soil and leveled. The pans are then placed on a bench in the greenhouse and watered from below as needed. After the plants reach the desired age (two to three weeks), each pan, is removed individually to a spraying chamber and sprayed by means of an atomizer, operating at a spray pressure of 170.3 kPa (10 psig) at the application rates noted. In the spray solution is an amount of an emulsifying agent mixture to give a spray solution or suspension which contains about 0.4% by volume of the emulsifier. The spray solution or suspension contains a sufficient amount of the candidate chemical in order to give application rates of the active ingredient corresponding to those shown in Tables 8 and 8A, while applying a total amount of solution or suspension equivalent to 1870 L/Ha (200 gallons/acre). The pans were returned to the greenhouse and watered as before and the injury to the plants as compared to the control is observed at approximately 10-14 days (usually 11 days) and in some instances observed again at 24-28 days (usually 25 days) after spraying. The post-emergent herbicidal activity shown in these tables is the percent inhibition of each plant species.

Velvetleaf [12] = assay: Post-emergence herbicide test; settings: Abutilon theophrasti, 11.21 kg/ha, read-out: % plant inhibition (Vele)
Description: as §5

Wild buckwheat [13] = assay: Post-emergence herbicide test; settings: Fallopia convolvulus, 11.21 kg/ha, read-out: % plant inhibition (Wibw)
Description: as §5

Cocklebur [14] = assay: Post-emergence herbicide test; settings: Xanthium strumarium, 11.21 kg/ha, read-out: % plant inhibition (Cobu)
Description: as §5

Seedling johnsongrass [15] = assay: Post-emergence herbicide test; settings: Sorghum halepense, 11.21 kg/ha, read-out: % plant inhibition (Sejg)
Description: as §5

Annual bluegrass [16] = assay: Post-emergence herbicide test; settings: 11.21 kg/ha, read-out: % plant inhibition (Anbg)
Description: as §5

Downy Brome [17] = assay: Post-emergence herbicide test; settings: Bromus tectorum, 11.21 kg/ha, read-out: % plant inhibition (Dobr)
Description: as §5

Barnyardgrass [18] = assay: Post-emergence herbicide test; settings: Echinochloa crus-galli, 11.21 kg/ha, read-out: % plant inhibition (Bygr)
Description: as §5

Indian Mustard [19] = assay: Post-emergence herbicide test; settings: Brassica juncea, 11.21 kg/ha, read-out: % plant inhibition (Inmu)
Description: as §5

Yellow nutsedge [20] = assay: Post-emergence herbicide test; settings: Cyperus, 11.21 kg/ha, read-out: % plant inhibition (Yens)
Description: as §5

Structure (SMILES) | inhibition at 11210 g/ha (Morningglory [1]) [%] | inhibition at 11210 g/ha (Velvetleaf [2]) [%] | inhibition at 11210 g/ha (Wild buckwheat [3]) [%] | inhibition at 11210 g/ha (Cocklebur [4]) [%] | inhibition at 11210 g/ha (Seedling johnsongrass [5]) [%] | inhibition at 11210 g/ha (Annual bluegrass [6]) [%] | inhibition at 11210 g/ha (Downy Brome [7]) [%] | inhibition at 11210 g/ha (Barnyardgrass [8]) [%] | inhibition at 11210 g/ha (Indian Mustard [9]) [%] | inhibition at 11210 g/ha (Yellow nutsedge [10]) [%] | inhibition at 11210 g/ha (Morningglory [11]) [%] | inhibition at 11210 g/ha (Velvetleaf [12]) [%] | inhibition at 11210 g/ha (Wild buckwheat [13]) [%] | inhibition at 11210 g/ha (Cocklebur [14]) [%] | inhibition at 11210 g/ha (Seedling johnsongrass [15]) [%] | inhibition at 11210 g/ha (Annual bluegrass [16]) [%] | inhibition at 11210 g/ha (Downy Brome [17]) [%] | inhibition at 11210 g/ha (Barnyardgrass [18]) [%] | inhibition at 11210 g/ha (Indian Mustard [19]) [%] | inhibition at 11210 g/ha (Yellow nutsedge [20]) [%]
Cn1nc(C(F)(F)F)c(Cl)c1-c1ccc(Cl)cc1F [Compound 79] | 100 | 100 | 100 | 30 | 80 | 90 | 80 | 80 | 100 | 20 | 60 | 100 | 100 | 20 | 30 | 60 | 20 | 20 | 90 | 10
Cn1nc(-c2ccc([N+](=O)[O-])cc2)c(Cl)c1C(F)(F)F [Compound 81] | 30 | 90 | 100 | 20 | 90 | 60 | 80 | 60 | 20 | 0 | 60 | 80 | 90 | 40 | 70 | 0 | 10 | 70 | 10 | 50
Cn1nc(-c2ccc(Cl)cc2)c(Cl)c1C(F)(F)F [Compound 82] | 100 | 100 | 100 | 40 | 100 | 60 | 100 | 100 | 80 | 30 | 90 | 20 | 60 | 0 | 40 | 0 | 20 | 30 | 30 | 10
Cn1nc(-c2ccc(Cl)cc2)c(Cl)c1C(F)(F)Cl [Compound 83] | 30 | 90 | 90 | 40 | 100 | 40 | 90 | 60 | 60 | 20 | 80 | 100 | 100 | 70 | 60 | 0 | 40 | 40 | 90 | 20
